This note sets out measurements from US12358915B2, “METTL3 inhibitory compounds” (STORM THERAPEUTICS LTD., priority 2019, dated 2025).

This assay deals with T1, METTL3/14 (Homo sapiens, UniProt Q86U44).
T1 construct: The enzyme used was full-length his-tagged METTL3; His; made in house
Put plainly: METTL3/14 methyltransferase assay (METTL3_14 RFMS, RapidFire mass spectrometry).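 Also: recombinant His-tagged METTL3 with FLAG-tagged METTL14 from baculovirus, SAH product quantified by mass spectrometry against isotope-labelled internal standards, 60 min at room temperature, scaled between no-RNA and DMSO-only wells.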 Type of assay: biochemical. As to conditions: 5 nM METTL3/14, 0.2 μM RNA substrate, 0.5 μM SAM; lower limit of the assay IC50=5 nM; Compounds 63-265; read-out: METTL3_14 RFMS IC50.

SMILES strings stand for the structures.

T1 sequence (Q86U44 whole entry): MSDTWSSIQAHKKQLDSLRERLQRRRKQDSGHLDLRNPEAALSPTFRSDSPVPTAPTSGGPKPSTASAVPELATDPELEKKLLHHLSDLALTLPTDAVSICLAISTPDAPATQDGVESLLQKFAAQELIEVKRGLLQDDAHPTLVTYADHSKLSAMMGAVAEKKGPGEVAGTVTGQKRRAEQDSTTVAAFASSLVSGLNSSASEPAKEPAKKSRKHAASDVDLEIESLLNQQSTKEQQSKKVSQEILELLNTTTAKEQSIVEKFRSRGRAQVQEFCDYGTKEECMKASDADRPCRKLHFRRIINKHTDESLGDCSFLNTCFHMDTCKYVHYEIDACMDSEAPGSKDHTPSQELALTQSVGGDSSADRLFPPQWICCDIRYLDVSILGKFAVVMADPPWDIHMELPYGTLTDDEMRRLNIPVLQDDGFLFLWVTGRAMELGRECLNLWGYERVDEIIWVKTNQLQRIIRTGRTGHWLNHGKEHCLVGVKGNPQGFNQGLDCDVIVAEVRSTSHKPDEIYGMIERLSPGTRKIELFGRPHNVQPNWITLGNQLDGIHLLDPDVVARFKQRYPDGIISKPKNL
T1 sequence (Q9HCE5 whole entry partner): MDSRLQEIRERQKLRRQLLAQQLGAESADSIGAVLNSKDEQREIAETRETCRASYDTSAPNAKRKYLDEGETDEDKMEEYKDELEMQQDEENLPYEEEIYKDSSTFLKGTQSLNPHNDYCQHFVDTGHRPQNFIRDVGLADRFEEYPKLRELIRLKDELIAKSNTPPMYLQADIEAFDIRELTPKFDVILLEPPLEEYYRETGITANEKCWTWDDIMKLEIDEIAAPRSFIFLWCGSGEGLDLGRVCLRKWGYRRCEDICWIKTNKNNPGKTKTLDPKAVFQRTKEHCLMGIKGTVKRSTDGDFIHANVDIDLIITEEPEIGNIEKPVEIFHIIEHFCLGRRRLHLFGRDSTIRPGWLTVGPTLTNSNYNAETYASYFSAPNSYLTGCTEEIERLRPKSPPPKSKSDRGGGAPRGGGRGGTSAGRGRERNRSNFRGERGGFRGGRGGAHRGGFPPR

Regarding `O=C(NCc1cn2cc(CNC[C@@H]3CCCO3)ccc2n1)c1cc(=O)n2ccccc2n1` [Compound 117, 4-oxo-N-({6-[({[(2S)-oxolan-2-yl]methyl}amino)methyl]imidazo[1,2-a]pyridin-2-yl}methyl)-4H-pyrido[1,2-a] pyrimidine-2-carboxamide], the IC50 is 83.7 nM.

As to `O=C(NCc1cn2cc(CNC[C@H]3CCCO3)ccc2n1)c1cc(=O)n2ccccc2n1` [Compound 118, 4-oxo-N-({6-[({[(2R)-oxolan-2-yl]methyl}amino)methyl]imidazo[1,2-a]pyridin-2-yl}methyl)-4H-pyrido[1,2-a]pyrimidine-2-carboxamide], the IC50 came out at 87.2 nM.

With `O=C(NCc1cn2cc(CNCC(F)F)ccc2n1)c1cc(=O)n2ccccc2n1` [Compound 119, N-[(6-{[(2,2-difluoroethyl)amino]methyl}imidazo[1,2-a]pyridin-2-yl)methyl]-4-oxo-4H-pyrido[1,2-a] pyrimidine-2-carboxamide], the IC50 was found to be 578 nM.

With `O=C(NCc1cn2cc(CNCC3CCOC3)ccc2n1)c1cc(=O)n2ccccc2n1` (stereo not shown) [Compound 120, 4-oxo-N-{[6-({[(oxolan-3-yl)methyl]amino}methyl)imidazo[1,2-a]pyridin-2-yl]methyl}-4H-pyrido [1,2-a]pyrimidine-2-carboxamide], the half-maximal inhibitory concentration (IC50) was 24.7 nM.

In the case of `CC1(CNCc2ccc3nc(CNC(=O)c4cc(=O)n5ccccc5n4)cn3c2)CC1` [Compound 121, N-{[6-({[(1-methylcyclopropyl)methyl]amino}methyl)imidazo [1,2-a]pyridin-2-yl]methyl}-4-oxo-4H-pyrido [1,2-a]pyrimidine-2-carboxamide], the IC50 came out at 16.8 nM.

With `O=C(NCc1cn2cc(CNC3CCOC3)ccc2n1)c1cc(=O)n2ccccc2n1` (stereo not shown) [Compound 122, 4-oxo-N-[(6-{[(oxolan-3-yl)amino]methyl}imidazo[1,2-a]pyridin-2-yl)methyl]-4H-pyrido[1,2-a] pyrimidine-2-carboxamide], the IC50 came to 110 nM.

Take `COC(=O)C(NCc1ccc2nc(CNC(=O)c3cc(=O)n4ccccc4n3)cn2c1)C(C)C` (stereo not shown) [Compound 123, methyl 3-methyl-2-[({2-[({4-oxo-4H-pyrido[1,2-a]pyrimidin-2-yl}formamido)methyl]imidazo [1,2-a]pyridin-6-yl}methyl)amino] butanoate]: the IC50 was found to be 332 nM.

Turning to `O=C(NCc1cn2cc(CNC3CCCOC3)ccc2n1)c1cc(=O)n2ccccc2n1` (stereo not shown) [Compound 124, N-[(6-{[(oxan-3-yl)amino]methyl}imidazo[1,2-a]pyridin-2-yl)methyl]-4-oxo-4H-pyrido [1,2-a]pyrimidine-2-carboxamide], the IC50 stood at 119 nM.

With `O=C(NCc1cn2cc(CNC[C@H](O)C(F)(F)F)ccc2n1)c1cc(=O)n2ccccc2n1` [Compound 125, 4-oxo-N-{[6-({[(2S)-3,3,3-trifluoro-2-hydroxypropyl]amino}methyl)imidazo[1,2-a]pyridin-2-yl]methyl}-4H-pyrido[1,2-a] pyrimidine-2-carboxamide], the IC50 came to 221 nM.

As to `O=C(NCc1cn2cc(CNCCF)ccc2n1)c1cc(=O)n2ccccc2n1` [Compound 128, N-[(6-{[(2-fluoroethyl)amino]methyl}imidazo [1,2-a]pyridin-2-yl)methyl]-4-oxo-4H-pyrido[1,2-a] pyrimidine-2-carboxamide], the IC50 came to 333 nM.

Take `O=C(NCc1cn2cc(CN3CCC(F)(F)CC3)ccc2n1)c1cc(=O)n2ccccc2n1` [Compound 129, N-({6-[(4,4-difluoropiperidin-1-yl)methyl]imidazo [1,2-a]pyridin-2-yl}methyl)-4-oxo-4H-pyrido[1,2-a]pyrimidine-2-carboxamide]: the IC50 was found to be 84.3 nM.

`O=C(NCc1cn2cc(CN3CCN(c4ccccc4)CC3)ccc2n1)c1cc(=O)n2ccccc2n1` [Compound 130, 4-oxo-N-({6-[(4-phenylpiperazin-1-yl)methyl]imidazo [1,2-a]pyridin-2-yl}methyl)-4H-pyrido[1,2-a] pyrimidine-2-carboxamide]: the IC50 came out at 206 nM.

As for `O=C(NCc1cn2cc(CN3CCc4ccccc4C3)ccc2n1)c1cc(=O)n2ccccc2n1` [Compound 131, 4-oxo-N-({6-[(1,2,3,4-tetrahydroisoquinolin-2-yl)methyl]imidazo [1,2-a]pyridin-2-yl}methyl)-4H-pyrido [1,2-a]pyrimidine-2-carboxamide], the IC50 came to 87.7 nM.

With `CCN(CC)Cc1ccc2nc(CNC(=O)c3cc(=O)n4ccccc4n3)cn2c1` [Compound 132, N-({6-[(diethylamino)methyl]imidazo [1,2-a]pyridin-2-yl}methyl)-4-oxo-4H-pyrido[1,2-a] pyrimidine-2-carboxamide], the IC50 worked out at 917 nM.

`O=C(NCc1cn2cc(CN3CCCC3)ccc2n1)c1cc(=O)n2ccccc2n1` [Compound 133, 4-oxo-N-({6-[(pyrrolidin-1-yl)methyl]imidazo[1,2-a]pyridin-2-yl}methyl)-4H-pyrido[1,2-a] pyrimidine-2-carboxamide]: the IC50 worked out at 480 nM.

On to `O=C(NCc1cn2cc(CN3CC(c4ccccn4)C3)ccc2n1)c1cc(=O)n2ccccc2n1` [Compound 134, 4-oxo-N-[(6-{[3-(pyridin-2-yl)azetidin-1-yl]methyl}imidazo[1,2-a]pyridin-2-yl)methyl]-4H-pyrido[1,2-a] pyrimidine-2-carboxamide], for which the IC50 worked out at 440 nM.

With `O=C(NCc1cn2cc(CNC(C3CC3)C3CC3)ccc2n1)c1cc(=O)n2ccccc2n1` [Compound 135, N-[(6-{[(dicyclopropyl-methyl)amino]methyl}imidazo [1,2-a]pyridin-2-yl)methyl]-4-oxo-4H-pyrido [1,2-a]pyrimidine-2-carboxamide], the IC50 was 18.3 nM.

`CN(Cc1ccc2nc(CNC(=O)c3cc(=O)n4ccccc4n3)cn2c1)CC1CC1` [Compound 136, N-[(6-{[(cyclopropyl-methyl)(methyl)amino]methyl}imidazo[1,2-a]pyridin-2-yl)methyl]-4-oxo-4H-pyrido[1,2-a]pyrimidine-2-carboxamide]: the IC50 was 99 nM.

Turning to `CC1CCN(Cc2ccc3nc(CNC(=O)c4cc(=O)n5ccccc5n4)cn3c2)CC1` [Compound 137, N-({6-[(4-methylpiperidin-1-yl)methyl]imidazo[1,2-a]pyridin-2-yl}methyl)-4-oxo-4H-pyrido[1,2-a] pyrimidine-2-carboxamide], the IC50 is 17.8 nM.

Turning to `O=C(NCc1cn2cc(CN3CCC(C(F)(F)F)CC3)ccc2n1)c1cc(=O)n2ccccc2n1` [Compound 138, 4-oxo-N-[(6-{[4-(trifluoromethyl)piperidin-1-yl]methyl}imidazo [1,2-a]pyridin-2-yl)methyl]-4H-pyrido[1,2-a] pyrimidine-2-carboxamide], the concentration for half-maximal inhibition (IC50) was 31.4 nM.

With `CC1CCCN(Cc2ccc3nc(CNC(=O)c4cc(=O)n5ccccc5n4)cn3c2)C1` (stereo not shown) [Compound 139, N-({6-[(3-methylpiperidin-1-yl)methyl]imidazo[1,2-a]pyridin-2-yl}methyl)-4-oxo-4H-pyrido[1,2-a]pyrimidine-2-carboxamide], the IC50 is 32.6 nM.

Consider `O=C(NCc1cn2cc(CNCC3CC34CC4)ccc2n1)c1cc(=O)n2ccccc2n1` (stereo not shown) [Compound 140], for which the IC50 was found to be 18.7 nM.

With `CC1(C)CCCN(Cc2ccc3nc(CNC(=O)c4cc(=O)n5ccccc5n4)cn3c2)C1` [Compound 141, N-({6-[(3,3-dimethylpiperidin-1-yl)methyl]imidazo[1,2-a]pyridin-2-yl}methyl)-4-oxo-4H-pyrido[1,2-a]pyrimidine-2-carboxamide], the 50% inhibitory concentration (IC50) was 14.5 nM.

As to `O=C(NCc1cn2cc(CN3CCCC(C(F)(F)F)C3)ccc2n1)c1cc(=O)n2ccccc2n1` (stereo not shown) [Compound 142, 4-oxo-N-[(6-{[3-(trifluoromethyl)piperidin-1-yl]methyl}imidazo [1,2-a]pyridin-2-yl)methyl]-4H-pyrido[1,2-a] pyrimidine-2-carboxamide], the IC50 worked out at 48.8 nM.

For the compound `CC1(C)CCC(CNCc2ccc3nc(CNC(=O)c4cc(=O)n5ccccc5n4)cn3c2)O1` (stereo not shown) [Compound 143, N-{[6-({[(5,5-dimethyloxolan-2-yl)methyl]amino}methyl)imidazo[1,2-a]pyridin-2-yl]methyl}-4-oxo-4H-pyrido[1,2-a] pyrimidine-2-carboxamide], the IC50 turned out to be 136 nM.

With `O=C(NCc1cn2cc(CN3CCC(F)CC3)ccc2n1)c1cc(=O)n2ccccc2n1` [Compound 144, N-({6-[(4-fluoropiperidin-1-yl)methyl]imidazo[1,2-a]pyridin-2-yl}methyl)-4-oxo-4H-pyrido[1,2-a]pyrimidine-2-carboxamide], the IC50 is 59.7 nM.

On to `CC1(NCc2ccc3nc(CNC(=O)c4cc(=O)n5ccccc5n4)cn3c2)CCCCC1` [Compound 146, N-[(6-{[(1-methylcyclohexyl)amino]methyl}imidazo[1,2-a]pyridin-2-yl)methyl]-4-oxo-4H-pyrido[1,2-a]pyrimidine-2-carboxamide], for which the IC50 was found to be 25.1 nM.

Take `CC1(C)COC(CNCc2ccc3nc(CNC(=O)c4cc(=O)n5ccccc5n4)cn3c2)C1` (stereo not shown) [Compound 147, N-{[6-({[(4,4-dimethyloxolan-2-yl)methyl]amino}methyl)imidazo[1,2-a]pyridin-2-yl]methyl}-4-oxo-4H-pyrido[1,2-a] pyrimidine-2-carboxamide]: the IC50 was 224 nM.

`CC1(NCc2ccc3nc(CNC(=O)c4cc(=O)n5ccccc5n4)cn3c2)CCCC1` [Compound 148, N-[(6-{[(1-methylcyclopentyl)amino]methyl}imidazo[1,2-a]pyridin-2-yl)methyl]-4-oxo-4H-pyrido [1,2-a]pyrimidine-2-carboxamide]: the IC50 was found to be 28.5 nM.

For `CCCNCc1ccc2nc(CNC(=O)c3cc(=O)n4ccccc4n3)cn2c1` [Compound 149, 4-oxo-N-({6-[(propylamino)methyl]imidazo [1,2-a]pyridin-2-yl}methyl)-4H-pyrido[1,2-a] pyrimidine-2-carboxamide], the IC50 is 40.2 nM.

For the compound `CC1(C)CCOC1CNCc1ccc2nc(CNC(=O)c3cc(=O)n4ccccc4n3)cn2c1` (stereo not shown) [Compound 150, N-{[6-({[(3,3-dimethyloxolan-2-yl)methyl]amino}methyl)imidazo[1,2-a]pyridin-2-yl]methyl}-4-oxo-4H-pyrido[1,2-a] pyrimidine-2-carboxamide], the IC50 worked out at 29.9 nM.
